{"source": "patent US20200345725A1", "about": "“Methods and Compositions for Treating Cancer” (Omeros Corporation, priority 2019, published 2020)", "key": {"[1]": {"system": "human PBMCs", "test": "Th1 cytokines in supernatants of stimulated human PBMC, GPR174 inhibitor with adenosine pathway inhibitors (Examples 15, 18-22)", "format": "cell-based", "conditions": "for IFN-γ, ratio relative to vehicle control (Veh column) / IL-2, ratio relative to vehicle control (Veh column) / TNF, ratio relative to vehicle control (Veh column): donor 6, no MRS, Cmpd 10 1, ZM 0.1, PBF 0.1, SCH 0.2 μM, ADA 0.75 μg/mL", "in_short": "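Human donor PBMCs (1×10^6 cells/well) were stimulated with 1 µg/mL anti-CD3 (UCHT1) plus 0.1 µg/mL anti-CD28 (CD28.2) for 24 h with test agents. IFN-γ, IL-2, TNF and GM-CSF in supernatants were measured by ELISA, Legendplex or MSD. Fold changes were compared by one-way ANOVA with Tukey correction.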"}, "[2]": {"system": "purified human T cells", "test": "Cytokines of purified human T cells activated with K562 cells, with or without PS liposomes, tumor exosomes, GPR174 inhibitor", "format": "cell-based", "conditions": "for IFN-γ FC (fold change), Compound 10 vs Vehicle / IL-2 FC (fold change), Compound 10 vs Vehicle / TNF FC (fold change), Compound 10 vs Vehicle: stimulated human T cells, compound 10, 0.5 μM", "procedure": "Purified human T cells (Astarte Biologies, Inc) were activated in the presence of K562 cells (as artificial antigen presenting cells) presenting anti-CD3 and CD80.Fc via Fc-receptor binding, in 96-well U-bottom plates containing X-vivo-15 media in the following conditions:\nAnti-CD3 (clone UCHT1, 0.5 μg/mL)\nCD80.Fc fusion protein (R&D Systems, 2 μg/mL)\nExosomes from human breast cancer tumor cell line MDA-MB-231 (12 μg/mL) (EXOP-105A-1 from System Biosciences, LLC)\nGPR174 inhibitor (compound 10, 0.5 μM or 3 μM)\nCells were cultured for 24 hours and supernatants were evaluated for cytokine concentrations (Legendplex, Biolegend)."}, "[3]": {"conditions": "donor 3, PBF-509 0.2 μM, alone (label PBF) or with Cmpd 10 1 μM (label Cmpd 10)"}, "[4]": {"conditions": "donor 3, PBF-509 0.2 μM, alone (label PBF) or with Cmpd 10 1 μM (label Cmpd 10), listed as Cmpd 10"}, "[5]": {"conditions": "donor 3, ZM-241385 0.2 μM, alone (label ZM) or with Cmpd 10 1 μM (label Cmpd 10)"}, "[6]": {"conditions": "donor 3, ZM-241385 0.2 μM, alone (label ZM) or with Cmpd 10 1 μM (label Cmpd 10), listed as Cmpd 10"}, "[7]": {"conditions": "donor 6, MRS-1754 1 μM added to the agent(s) of the label, label MRS = MRS alone"}, "[8]": {"conditions": "donor 6, MRS-1754 1 μM added to the agent(s) of the label, label MRS = MRS alone, listed as Cmpd 10"}, "[9]": {"conditions": "donor 7, high and low concentrations, ZM 0.1 μM"}, "[10]": {"conditions": "donor 7, no ZM, 0.3 μM (compound 20: 3 μM)"}, "[11]": {"conditions": "donor 7, no ZM, 1 μM (compound 20: 10 μM)"}, "[12]": {"conditions": "donor 7, with ZM-241385 0.1 μM, 0.3 μM (compound 20: 3 μM)"}, "[13]": {"conditions": "donor 7, with ZM-241385 0.1 μM, 1 μM (compound 20: 10 μM), label ZM = ZM alone"}, "[14]": {"conditions": "in the presence of Exosomes (human breast cancer tumor-derived)"}, "[15]": {"conditions": "in the presence of PS Liposomes"}}, "note": "Marks after values point to notes of the source that are not given here.", "data": [{"smiles": "CC1CCN(c2cc(N3CCN(S(=O)(=O)c4ccccc4)CC3)c([N+](=O)[O-])cc2F)CC1", "note": "[compound 10]", "values": [{"measurement": "TNF, ratio relative to vehicle control (MRS column)", "setting": "[1]; donor 3, MRS-1754 1 μM added to the agent(s) of the label, label MRS = MRS alone", "value": "4.6* fold"}, {"measurement": "IL-2, ratio relative to vehicle control (MRS column)", "setting": "[1]; donor 3, MRS-1754 1 μM added to the agent(s) of the label, label MRS = MRS alone, listed as Cmpd 10", "value": "4.3* fold"}, {"measurement": "IFN-γ fold-change relative to vehicle control", "setting": "[1]; [3]", "value": 1.8, "unit": "fold"}, {"measurement": "IL-2 fold-change relative to vehicle control", "setting": "[1]; [3]", "value": 1.6, "unit": "fold"}, {"measurement": "TNF fold-change relative to vehicle control", "setting": "[1]; [3]", "value": 2.9, "unit": "fold"}, {"measurement": "IFN-γ fold-change relative to vehicle control", "setting": "[1]; [4]", "value": "1.8* fold"}, {"measurement": "IL-2 fold-change relative to vehicle control", "setting": "[1]; [4]", "value": "1.6* fold"}, {"measurement": "TNF fold-change relative to vehicle control", "setting": "[1]; [4]", "value": "2.9* fold"}, {"measurement": "IFN-γ fold-change relative to vehicle control", "setting": "[1]; [5]", "value": 2.5, "unit": "fold"}, {"measurement": "IL-2 fold-change relative to vehicle control", "setting": "[1]; [5]", "value": 2.3, "unit": "fold"}, {"measurement": "TNF fold-change relative to vehicle control", "setting": "[1]; [5]", "value": 4.6, "unit": "fold"}, {"measurement": "IFN-γ fold-change relative to vehicle control", "setting": "[1]; [6]", "value": "2.5* fold"}, {"measurement": "IL-2 fold-change relative to vehicle control", "setting": "[1]; [6]", "value": "2.3* fold"}, {"measurement": "TNF fold-change relative to vehicle control", "setting": "[1]; [6]", "value": "4.6* fold"}, {"measurement": "IFN-γ, MRS/Veh: ratio in the presence vs. the absence of MRS-1754", "setting": "[1]; donor 6", "value": 1.1}, {"measurement": "IL-2, MRS/Veh: ratio in the presence vs. the absence of MRS-1754", "setting": "[1]; donor 6", "value": "1.4*"}, {"measurement": "TNF, MRS/Veh: ratio in the presence vs. the absence of MRS-1754", "setting": "[1]; donor 6", "value": "1.4*"}, {"measurement": "IFN-γ, ratio relative to vehicle control (Veh column)", "setting": "[1]", "value": "did not significantly increase"}, {"measurement": "IL-2, ratio relative to vehicle control (Veh column)", "setting": "[1]", "value": 1.7, "unit": "fold"}, {"measurement": "TNF, ratio relative to vehicle control (Veh column)", "setting": "[1]", "value": 1.4, "unit": "fold"}, {"measurement": "IFN-γ, ratio relative to vehicle control (Veh column)", "setting": "[1]; listed as Cmpd 10", "value": 1.2, "unit": "fold"}, {"measurement": "IL-2, ratio relative to vehicle control (Veh column)", "setting": "[1]; listed as Cmpd 10", "value": "1.7* fold"}, {"measurement": "TNF, ratio relative to vehicle control (Veh column)", "setting": "[1]; listed as Cmpd 10", "value": "1.4* fold"}, {"measurement": "IFN-γ, ratio relative to vehicle control (MRS)", "setting": "[1]; [7]", "value": "1.3* fold"}, {"measurement": "IL-2, ratio relative to vehicle control (MRS column)", "setting": "[1]; [7]", "value": 1.4, "unit": "fold"}, {"measurement": "TNF, ratio relative to vehicle control (MRS column)", "setting": "[1]; [7]", "value": 2.1, "unit": "fold"}, {"measurement": "IL-2, ratio relative to vehicle control (MRS column)", "setting": "[1]; [8]", "value": "2.3* fold"}, {"measurement": "TNF, ratio relative to vehicle control (MRS column)", "setting": "[1]; [8]", "value": "2.1* fold"}, {"measurement": "synergy with ZM on GM-CSF (greater than the sum of the increases with each inhibitor alone)", "setting": "[1]; [9]", "value": "synergized with ZM"}, {"measurement": "synergy with ZM on IFN-γ (greater than the sum of the increases with each inhibitor alone)", "setting": "[1]; [9]", "value": "synergized with ZM"}, {"measurement": "synergy with ZM on IL-2 (greater than the sum of the increases with each inhibitor alone)", "setting": "[1]; [9]", "value": "synergized with ZM"}, {"measurement": "synergy with ZM on TNF (greater than the sum of the increases with each inhibitor alone)", "setting": "[1]; [9]", "value": "synergized with ZM"}, {"measurement": "GM-CSF, ratio relative to vehicle control", "setting": "[1]; [10]", "value": "3.6*"}, {"measurement": "IFN-γ, ratio relative to vehicle control", "setting": "[1]; [10]", "value": "2.1*"}, {"measurement": "IL-2, ratio relative to vehicle control", "setting": "[1]; [10]", "value": "1.7*"}, {"measurement": "TNF, ratio relative to vehicle control", "setting": "[1]; [10]", "value": "2.2*"}, {"measurement": "GM-CSF, ratio relative to vehicle control", "setting": "[1]; [11]", "value": "3.1*"}, {"measurement": "IFN-γ, ratio relative to vehicle control", "setting": "[1]; [11]", "value": "2.2*"}, {"measurement": "IL-2, ratio relative to vehicle control", "setting": "[1]; [11]", "value": "1.6*"}, {"measurement": "TNF, ratio relative to vehicle control", "setting": "[1]; [11]", "value": "2.2*"}, {"measurement": "GM-CSF, ratio relative to vehicle control", "setting": "[1]; [12]", "value": "6.2*"}, {"measurement": "IFN-γ, ratio relative to vehicle control", "setting": "[1]; [12]", "value": "3.7*"}, {"measurement": "IL-2, ratio relative to vehicle control", "setting": "[1]; [12]", "value": "2.0*"}, {"measurement": "TNF, ratio relative to vehicle control", "setting": "[1]; [12]", "value": "3.6*"}, {"measurement": "GM-CSF, ratio relative to vehicle control", "setting": "[1]; [13]", "value": "5.9*"}, {"measurement": "IFN-γ, ratio relative to vehicle control", "setting": "[1]; [13]", "value": "3.7*"}, {"measurement": "IL-2, ratio relative to vehicle control", "setting": "[1]; [13]", "value": "2.2*"}, {"measurement": "TNF, ratio relative to vehicle control", "setting": "[1]; [13]", "value": "3.8*"}, {"measurement": "IL-2 production, fold change by compound 10 in the absence of PS liposomes (FIG. 65)", "setting": "[2]; compound 10 3 μM", "value": 1.3, "unit": "fold"}, {"measurement": "IL-2 production, fold change by compound 10 in the presence of PS liposomes (FIG. 65)", "setting": "[2]; compound 10 3 μM, PS liposomes 1 μM", "value": 2.4, "unit": "fold"}, {"measurement": "IFN-γ FC (fold change), Compound 10 vs Vehicle", "setting": "[2]; [14]", "value": 1.4}, {"measurement": "IL-2 FC (fold change), Compound 10 vs Vehicle", "setting": "[2]; [14]", "value": 1.7}, {"measurement": "TNF FC (fold change), Compound 10 vs Vehicle", "setting": "[2]; [14]", "value": 1.7}, {"measurement": "IFN-γ FC (fold change), Compound 10 vs Vehicle", "setting": "[2]; in the presence of Media", "value": 1.1}, {"measurement": "IL-2 FC (fold change), Compound 10 vs Vehicle", "setting": "[2]; in the presence of Media", "value": 1.2}, {"measurement": "TNF FC (fold change), Compound 10 vs Vehicle", "setting": "[2]; in the presence of Media", "value": 1.4}, {"measurement": "IFN-γ FC (fold change), Compound 10 vs Vehicle", "setting": "[2]; [15]", "value": 1.3}, {"measurement": "IL-2 FC (fold change), Compound 10 vs Vehicle", "setting": "[2]; [15]", "value": 1.4}, {"measurement": "TNF FC (fold change), Compound 10 vs Vehicle", "setting": "[2]; [15]", "value": 1.7}]}]}
